# Assay results reported in US20230140216A1, “COMBINATION THERAPY FOR TREATING MPS1” (GAIN THERAPEUTICS SA, priority 2020, published 2023).
# Target: T1, Recombinant human α-L-iduronidase protein (Homo sapiens, UniProt P35475)
# T1 construct: purchased R&D
# T1 sequence (P35475 28-653): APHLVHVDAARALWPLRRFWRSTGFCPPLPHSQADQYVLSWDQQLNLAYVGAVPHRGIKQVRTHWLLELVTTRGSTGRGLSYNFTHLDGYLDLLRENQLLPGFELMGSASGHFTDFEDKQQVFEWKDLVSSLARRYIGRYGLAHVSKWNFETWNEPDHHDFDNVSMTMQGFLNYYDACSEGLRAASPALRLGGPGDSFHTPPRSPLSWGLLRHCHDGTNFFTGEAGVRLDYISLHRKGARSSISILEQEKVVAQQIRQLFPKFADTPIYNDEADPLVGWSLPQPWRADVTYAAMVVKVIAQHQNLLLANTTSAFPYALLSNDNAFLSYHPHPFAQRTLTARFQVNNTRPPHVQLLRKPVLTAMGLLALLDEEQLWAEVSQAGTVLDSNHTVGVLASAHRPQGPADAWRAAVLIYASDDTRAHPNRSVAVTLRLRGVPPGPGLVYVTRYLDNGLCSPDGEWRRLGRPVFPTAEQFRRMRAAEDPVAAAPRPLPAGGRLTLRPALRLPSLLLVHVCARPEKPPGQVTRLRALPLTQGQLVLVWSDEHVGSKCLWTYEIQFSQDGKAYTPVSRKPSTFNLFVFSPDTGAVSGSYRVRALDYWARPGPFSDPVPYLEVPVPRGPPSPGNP
# Test: Differential scanning fluorimetry (DSF) thermal stabilization;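 also: Classes count stabilization of α-L-iduronidase despite the GALC label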
# Format: binding
# Settings: commercially available Examples 8-37; ΔTm class
# Method: The capacity of Compounds of the Disclosure to stabilize α-L-iduronidase was assessed by differential scanning fluorimetry technique. The thermal denaturation of purified human native enzyme was monitored in the presence of the extrinsic fluorescent probe SYPRO Orange (Sigma-Aldrich, St. Louis, MO). The tested compounds were dissolved in 100% DMSO and diluted into the protein buffer to achieve final concentrations of 1% DMSO.
# Recombinant human α-L-iduronidase protein (purchased from R&D) 12.5 µL of 1.5 µM in 100 mM Hepes 20 mM MgCl2 pH 7 (protein final concentration 0.75 µM) with Sypro Orange 10X and 12.5 µl of the different compound solutions were dispensed into 96-well PCR-plates. The intensity of SYPRO Orange fluorescence after a systematic increase of temperature was monitored in the Roche LightCycler® 480 II device (Roche Diagnostics).
# The capacity to stabilize α-L-iduronidase is denoted as follows: • ΔTm GALC > 1 is shown as A; • ΔTm GALC between 0.5 and 1 is shown as B; • ΔTm GALC between 0.1 and 0.5 is shown as C; and • ΔTm GALC less than 0.1 is shown as D.
row,SMILES,DSF Activity range
1,"Cc1csc(NC(=O)CN(C)Cc2nc3ccsc3c(=O)[nH]2)n1 [Example 14, 2-(methyl((4-oxo-3,4-dihydrothieno[3,2-d]pyrimidin-2-yl)methyl)amino)-N-(4-methylthiazol-2-yl)acetamide]",A (ΔTm GALC > 1 is shown as A)
2,"CCCN(CC(=O)N1CCc2ccccc21)Cc1nc2ccsc2c(=O)[nH]1 [Example 15, 2-(((2-(indolin-1-yl)-2-oxoethyl)(propyl)amino)methyl)thieno[3,2-d]pyrimidin-4(3H)-one]",D (ΔTm GALC less than 0.1 is shown as D)
3,"CCN(CC(=O)Nc1c(Cl)cccc1Cl)Cc1nc2ccccc2c(=O)[nH]1 [Example 16, N-(2,6-dichlorophenyl)-2-(ethyl((4-oxo-3,4-dihydroquinazolin-2-yl)methyl)amino)acetamide]",B (ΔTm GALC between 0.5 and 1 is shown as B)
4,"COCCN(CC(=O)Nc1ccc(C)cc1)Cc1nc2ccccc2c(=O)[nH]1 [Example 17, 2-((2-methoxyethyl)((4-oxo-3,4-dihydroquinazolin-2-yl)methyl)amino)-N-(p-tolyl)acetamide]",B (ΔTm GALC between 0.5 and 1 is shown as B)
5,"CN(CC(=O)Nc1cccc2ccccc12)Cc1nc2ccccc2c(=O)[nH]1 [Example 18, 2-(methyl((4-oxo-3,4-dihydroquinazolin-2-yl)methyl)amino)-N-(naphthalen-1-yl)acetamide]",A (ΔTm GALC > 1 is shown as A)
6,"CCN(CC(=O)Nc1ccccc1)Cc1nc2ccccc2c(=O)[nH]1 [Example 19, 2-(ethyl((4-oxo-3,4-dihydroquinazolin-2-yl)methyl)amino)-N-phenylacetamide]",C (ΔTm GALC between 0.1 and 0.5 is shown as C)
7,"CCN(CC(=O)Nc1ccccc1C)Cc1nc2ccccc2c(=O)[nH]1 [Example 20, 2-(ethyl((4-oxo-3,4-dihydroquinazolin-2-yl)methyl)amino)-N-(o-tolyl)acetamide]",B (ΔTm GALC between 0.5 and 1 is shown as B)
8,"CN(CC(=O)Nc1cccc2ncccc12)Cc1nc2ccccc2c(=O)[nH]1 [Example 21, 2-(methyl((4-oxo-3,4-dihydroquinazolin-2-yl)methyl)amino)-N-(quinolin-5-yl)acetamide]",B (ΔTm GALC between 0.5 and 1 is shown as B)
9,"CCN(CC(=O)Nc1ccccc1Cl)Cc1nc2ccccc2c(=O)[nH]1 [Example 22, N-(2-chlorophenyl)-2-(ethyl((4-oxo-3,4-dihydroquinazolin-2-yl)methyl)amino)acetamide]",C (ΔTm GALC between 0.1 and 0.5 is shown as C)
10,"Cc1cccc(C)c1NC(=O)CN(C)Cc1nc2ccccc2c(=O)[nH]1 [Example 23, N-(2,6-dimethylphenyl)-2-(methyl((4-oxo-3,4-dihydroquinazolin-2-yl)methyl)amino)acetamide]",B (ΔTm GALC between 0.5 and 1 is shown as B)
11,"O=C(Nc1ccccc1)C1CCCN1Cc1nc2ccccc2c(=O)[nH]1 (centres unmarked) [Example 24, 1-((4-oxo-3,4-dihydroquinazolin-2-yl)methyl)-N-phenylpyrrolidine-2-carboxamide]",B (ΔTm GALC between 0.5 and 1 is shown as B)
12,"CCN(CC(=O)Nc1cccc2c1N=S=N2)Cc1nc2ccccc2c(=O)[nH]1 [Example 25, N-(benzo[c][1,2,5]thiadiazol-4-yl)-2-(ethyl((4-oxo-3,4-dihydroquinazolin-2-yl)methyl)amino)acetamide]",B (ΔTm GALC between 0.5 and 1 is shown as B)
13,"CCN(CC(=O)NCC(C)C)Cc1nc2ccccc2c(=O)[nH]1 [Example 26, 2-(ethyl((4-oxo-3,4-dihydroquinazolin-2-yl)methyl)amino)-N-isobutylacetamide]",B (ΔTm GALC between 0.5 and 1 is shown as B)
14,"CN(CC(=O)N(C)c1ccccc1)Cc1nc2ccccc2c(=O)[nH]1 [Example 27, N-methyl-2-(methyl((4-oxo-3,4-dihydroquinazolin-2-yl)methyl)amino)-N-phenylacetamide]",B (ΔTm GALC between 0.5 and 1 is shown as B)
15,"CCN(C(=O)CN(C)Cc1nc2ccccc2c(=O)[nH]1)c1cccc2ccccc12 [Example 28, N-ethyl-2-(methyl((4-oxo-3,4-dihydroquinazolin-2-yl)methyl)amino)-N-(naphthalen-1-yl)acetamide]",B (ΔTm GALC between 0.5 and 1 is shown as B)
16,"CN(CC(=O)N1CCCc2ccccc21)Cc1nc2ccccc2c(=O)[nH]1 [Example 29, 2-(((2-(3,4-dihydroquinolin-1(2H)-yl)-2-oxoethyl)(methyl)amino)methyl)quinazolin-4(3H)-one]",B (ΔTm GALC between 0.5 and 1 is shown as B)
17,"CN(CC(=O)Nc1ccc(Cl)c(Cl)c1)Cc1nc2c(cnn2C)c(=O)[nH]1 [Example 30, N-(3,4-dichlorophenyl)-2-(methyl((1-methyl-4-oxo-4,5-dihydro-1H-pyrazolo[3,4-d]pyrimidin-6-yl)methyl)amino)acetamide]",B (ΔTm GALC between 0.5 and 1 is shown as B)
18,"Cc1ccc(NC(=O)CN(C)Cc2nc3c(cnn3C)c(=O)[nH]2)cc1 [Example 31, 2-(methyl((1-methyl-4-oxo-4,5-dihydro-1H-pyrazolo[3,4-d]pyrimidin-6-yl)methyl)amino)-N-(p-tolyl)acetamide]",C (ΔTm GALC between 0.1 and 0.5 is shown as C)
19,"CN(CC(=O)Nc1cccc(F)c1)Cc1nc2c(cnn2C)c(=O)[nH]1 [Example 32, N-(3-fluorophenyl)-2-(methyl((1-methyl-4-oxo-4,5-dihydro-1H-pyrazolo[3,4-d]pyrimidin-6-yl)methyl)amino)acetamide]",D (ΔTm GALC less than 0.1 is shown as D)
20,"CN(CC(=O)Nc1ccccc1)Cc1nc2c(cnn2C)c(=O)[nH]1 [Example 33, 2-(methyl((1-methyl-4-oxo-4,5-dihydro-1H-pyrazolo[3,4-d]pyrimidin-6-yl)methyl)amino)-N-phenylacetamide]",C (ΔTm GALC between 0.1 and 0.5 is shown as C)
21,"COCCNC(=O)CN(C)Cc1nc2c(cnn2C)c(=O)[nH]1 [Example 34, N-(2-methoxyethyl)-2-(methyl((1-methyl-4-oxo-4,5-dihydro-1H-pyrazolo[3,4-d]pyrimidin-6-yl)methyl)amino)acetamide]",D (ΔTm GALC less than 0.1 is shown as D)
22,"CN(CC(=O)N1CCCC1)Cc1nc2c(cnn2C)c(=O)[nH]1 [Example 35, 1-methyl-6-((methyl(2-oxo-2-(pyrrolidin-1-yl)ethyl)amino)methyl)-1,5-dihydro-4H-pyrazolo[3,4-d]pyrimidin-4-one]",B (ΔTm GALC between 0.5 and 1 is shown as B)
23,"CN(CC(=O)N(C)C)Cc1nc2c(cnn2C)c(=O)[nH]1 [Example 36, N,N-dimethyl-2-(methyl((1-methyl-4-oxo-4,5-dihydro-1H-pyrazolo[3,4-d]pyrimidin-6-yl)methyl)amino)acetamide]",B (ΔTm GALC between 0.5 and 1 is shown as B)
24,"CN(CC(=O)N(C)C1CCCCC1)Cc1nc2c(cnn2C)c(=O)[nH]1 [Example 37, N-cyclohexyl-N-methyl-2-(methyl((1-methyl-4-oxo-4,5-dihydro-1H-pyrazolo[3,4-d]pyrimidin-6-yl)methyl)amino)acetamide]",B (ΔTm GALC between 0.5 and 1 is shown as B)

# Same assay, conditions: synthetized Examples 38-94; ΔTm class
row,SMILES,DSF Activity range
1,Cc1csc2c(=O)[nH]c(CN(C)CC(=O)N3Cc4ccccc4C3)nc12 [Example 38],B (ΔTm GALC between 0.5 and 1 is shown as B)
2,Cc1csc2c(=O)[nH]c(CN(C)CC(=O)N(C)c3ccccc3Cl)nc12 [Example 41],C (ΔTm GALC between 0.1 and 0.5 is shown as C)
3,CCN(CC(=O)N(C)c1ccccc1Cl)Cc1nc2c(C)csc2c(=O)[nH]1 [Example 42],C (ΔTm GALC between 0.1 and 0.5 is shown as C)
4,Cc1csc2c(=O)[nH]c(CN(CC(=O)N(C)c3ccccc3Cl)C3CC3)nc12 [Example 43],D (ΔTm GALC less than 0.1 is shown as D)
5,CCCN(CC(=O)N(C)c1ccccc1Cl)Cc1nc2c(C)csc2c(=O)[nH]1 [Example 44],B (ΔTm GALC between 0.5 and 1 is shown as B)
6,Cc1cc2nc(CN(C)CC(=O)N(C)c3ccccc3Cl)[nH]c(=O)c2s1 [Example 45],B (ΔTm GALC between 0.5 and 1 is shown as B)
7,CCN(CC(=O)N(C)c1ccccc1Cl)Cc1nc2cc(C)sc2c(=O)[nH]1 [Example 46],B (ΔTm GALC between 0.5 and 1 is shown as B)
8,Cc1cc2nc(CN(CC(=O)N(C)c3ccccc3Cl)C3CC3)[nH]c(=O)c2s1 [Example 47],D (ΔTm GALC less than 0.1 is shown as D)
